Measurements from patent publication US20240148821A1, “PHARMACEUTICAL USE OF CYCLIC PEPTIDE COMPOUND” (CHUGAI SEIYAKU KABUSHIKI KAISHA, priority 2021, published 2024).
Like-named read-outs stand apart in the source and are kept apart here. Bridge positions count the residues as written; N and C are the ends. Square brackets hold non-standard residues; d marks the D form. Peptide text beside a SMILES is read from it. hPhe(3,5-F2-4-CF3) = N[C@@H](CCc1cc(F)c(C(F)(F)F)c(F)c1)C(=O)O; NEtPhe(4-Me) = CCN[C@@H](Cc1ccc(C)cc1)C(=O)O; NMeGly(cPent) = CN[C@H](C(=O)O)C1CCCC1; NMeD = CN[C@@H](CC(=O)O)C(=O)O; NMeL = CN[C@@H](CC(C)C)C(=O)O; NMeA = CN[C@@H](C)C(=O)O; Ac5c = NC1(C(=O)O)CCCC1; Aze = O=C(O)[C@@H]1CCN1; Sar = CNCC(=O)O

Assays:
[1] = test system: gastric cancer cell line MKN-1 with an amplified copy number of the KRAS gene; details: MKN1 (Stomach) xenograft, 10 days
Description: (§2) Each type of cell line was subcutaneously grafted into nude mice, which were randomized after tumor size reached 200 to 300 mm^3, and compound administration (once daily) was initiated (Day 0). The solvents used to dissolve the compounds were DMSO and Cremophor EL. […] From the tumor volume data on the last measurement day, the tumor growth inhibition rate (TGI %: Tumor Growth Inhibition %) was calculated using the following expressions.
(§3) tumor volume (mm^3):½×long diameter (mm)×short diameter (mm)×short diameter (mm)
(§4) amount of change in tumor volume (mm^3)=tumor volume after Day 0−tumor volume at Day 0 • TV: average value of amount of change in tumor volume in administered group • CV: average value of amount of change in tumor volume in non-administered group

[2] = test system: Human pancreatic cancer cell line AsPC-1 (G12D mutation Kras); assay: AsPC-1 cell growth inhibition (AsPC-1 CGI); assay type: cell-based; details: read-out: AsPC-1 cell growth inhibition, 50% growth inhibitory concentration (IC50 value); 96 hours, CellTiter-Glo, values classified in ranges
Description: Test compounds were serially dilated with dimethyl sulfoxide, and 200 nL was then dispensed to a U-bottom 96-well plate using Labcyte Echo. […] The cell suspension was dispensed to a. plate containing a test compound at 100 μL per well and incubated at 37° C. in a 5% carbon dioxide gas incubator. 96 hours later, 80 μL of CellTiter-Glo (Promega) was added to each well and fluorescence was measured.

[3] = test system: large bowel carcinoma cell line LoVo; details: LoVo (Colon) xenograft, 10 mg/kg once daily, 10 days
Description: as §2, §3, §4

[4] = test system: pancreatic cancer cell line KP4; details: KP4 (Pancreas) xenograft, 10 days
Description: as §2, §3, §4

[5] = test system: various cancer cell lines (Ras mutation or amplification); assay: Measurement of cell growth inhibitory activity against various cancer cell lines (CellTiter-Glo); assay type: cell-based, human
Description: Various cancer cell lines used were purchased from commercial suppliers. […] The cell suspension and culture medium supplemented with serum were dispensed to a plate containing the test compounds at 40 μL (384 well plate) or 200 μL (96 well plate) per well and incubated in a carbon dioxide gas incubator. […] Six days or seven days after the start of cultivation, 20 μL of CellTiter-Glo (Promega) was added to each well and fluorescence was measured.

[6] = test system: non-small cell lung cancer cell line NC1-1441 with a KRAS mutation; assay: In vivo antitumor activity, mouse xenograft model, NCI-H441; details: NCI-H441 (NSCLC) xenograft, 14 days
Description: (§1) Tumor growth inhibition rate (TGI %)=(1−TV/CV)×100

[7] = test system: pancreatic cancer cell line MIA PaCa-2; details: MIA PaCa-2 (Pancreas) xenograft, 14 days
Description: as §2, §3, §4

[8] = test system: large bowel carcinoma cell line LS 180; assay: In vivo antitumor activity, mouse xenograft model, LS 180; details: LS 180 (Colon) xenograft, 7 days
Description: as §1

CC[C@H](C)[C@@H]1NC(=O)[C@H](CC(C)C)N(C)C(=O)C[C@@H](C(=O)N(C)C)N(C)C(=O)[C@H](C2CCCC2)N(C)C(=O)C2(CCCC2)NC(=O)[C@@H]2CCCN2C(=O)[C@H](CCc2cc(F)c(C(F)(F)F)c(F)c2)NC(=O)CN(C)C(=O)[C@H](Cc2ccc(C)cc2)N(CC)C(=O)[C@@H]2CCN2C(=O)[C@H](C)N(C)C1=O [Compound 1217, (5S,8S,11S,15S,18S,23aS,29S,35S,37aS)-8-((S)-sec-butyl)-18-cyclopentyl-29-(3,5-difluoro-4-(trifluoromethyl)phenethyl)-36-ethyl-1l-isobutyl-N,N,5,6,12,16,19,33-octamethyl-35-(4-methylbenzyl)-4,7,10,13,17,20,23,28,31,34,37-undecaoxotetratriacontahydro-2H,4H-spiro[azeto[2,1-u]pyrrolo[2,1-i][1,4,7,10,13,16,19,22,25,28,31]undecaazacyclotetratriacontine-21,1′-cyclopentane]-15-carboxamide] ([NMeL]I[NMeA][Aze][NEtPhe(4-Me)][Sar][hPhe(3,5-F2-4-CF3)]P[Ac5c][NMeGly(cPent)][NMeD]-NMe2; lactam N-11)
TGI (%) ([1]; 5 mg/kg once daily): 55%
TGI (%) ([1]; 10 mg/kg once daily): 205%
IC50 [2]: ≤ 20 nM
TGI (%) [3]: 85%
TGI (%) ([4]; 5 mg/kg once daily): 65%
TGI (%) ([4]; 10 mg/kg once daily): 104%
IC50 ([5]; A549, NSCLC, KRAS G12S): 0.3 nM
IC50 ([5]; AGS, Stomach, KRAS G12D): 0.32 nM
IC50 ([5]; AML-193, AML, NRAS G13V): 11.8 nM
IC50 ([5]; AsPC-1, Pancreas, KRAS G12D): 0.87 nM
IC50 ([5]; C-643, Thyroid, HRAS G13R): 3.24 nM
IC50 ([5]; CFPAC-1, Pancreas, KRAS G12V): 17.3 nM
IC50 ([5]; COR-L23, NSCLC, KRAS Amp (G12V)): 2.85 nM
IC50 ([5]; Calu-6, NSCLC, KRAS Q61K): 43.7 nM
IC50 ([5]; DLD-1, Colon, KRAS G13D): 5.08 nM
IC50 ([5]; DMS 53, SCLC, KRAS Amp): 12.2 nM
IC50 ([5]; FAMPAC, Pancreas, KRAS G12V): 2.09 nM
IC50 ([5]; HCC-44, NSCLC, KRAS G12C): 0.55 nM
IC50 ([5]; HCC-1171, NSCLC, KRAS G12C): 4.86 nM
IC50 ([5]; HCT-116, Colon, KRAS G13D): 8.58 nM
IC50 ([5]; HEC-50B, Endometrium, KRAS G12D): 43.8 nM
IC50 ([5]; HEC-151, Endometrium, NRAS G12D): 2.42 nM
IC50 ([5]; HLG-1, NSCLC, KRAS G12V): 3.29 nM
IC50 ([5]; HPAC, Pancreas, KRAS G12D): 2.19 nM
IC50 ([5]; HuG1-N, Stomach, KRAS Amp): 3.74 nM
IC50 ([5]; IPC-298, Skin, NRAS Q61L): 23.5 nM
IC50 ([5]; KE-39, Stomach, KRAS Amp): 0.8 nM
IC50 ([5]; KLE, Endometrium, KRAS Amp): 170 nM
IC50 ([5]; KMM-1, Myeloma, NRAS G13D): 8.59 nM
IC50 ([5]; KP4, Pancreas, KRAS G12D): 3.3 nM
IC50 ([5]; KURAMOCHI, Ovary, KRAS Amp): 1.18 nM
IC50 ([5]; LS 174T, Colon, KRAS G12D): 4.31 nM
IC50 ([5]; LS 180, Colon, KRAS G12D): 0.83 nM
IC50 ([5]; LS513, Colon, KRAS G12D): 3.69 nM
IC50 ([5]; LoVo, Colon, KRAS G13D): 5.5 nM
IC50 ([5]; MIA PaCa-2, Pancreas, KRAS G12C): 1.45 nM
IC50 ([5]; MKN-1, Stomach, KRAS Amp): 1.77 nM
IC50 ([5]; MOLT-4, ALL, NRAS G12C): 175 nM
IC50 ([5]; NCI-H23, NSCLC, KRAS G12C): 3.92 nM
IC50 ([5]; NCI-H358, NSCLC, KRAS G12C): 1.55 nM
IC50 ([5]; NCI-H441, NSCLC, KRAS G12V): 1.12 nM
IC50 ([5]; NCI-H460, NSCLC, KRAS Q61H): 4.2 nM
IC50 ([5]; NCI-H929, Myeloma, NRAS G13D): 9.79 nM
IC50 ([5]; NCI-H1373, NSCLC, KRAS G12C): 2.33 nM
IC50 ([5]; NCI-H1385, NSCLC, KRAS G12C): 14.3 nM
IC50 ([5]; NCI-H1792, NSCLC, KRAS G12C): 0.86 nM
IC50 ([5]; NCI-H1944, NSCLC, KRAS G13D): 2.53 nM
IC50 ([5]; NCI-H2009, NSCLC, KRAS G12A): 2.35 nM
IC50 ([5]; NCI-H2030, NSCLC, KRAS G12C): 4.05 nM
IC50 ([5]; NCI-H2122, NSCLC, KRAS G12C): 0.8 nM
IC50 ([5]; NOMO-1, AML, KRAS G13D): 6.5 nM
IC50 ([5]; PA-1, Ovary, NRAS G12D): 2.38 nM
IC50 ([5]; PANC-1, Pancreas, KRAS G12D): 44.3 nM
IC50 ([5]; RERF-LC-Ad2, NSCLC, KRAS G12V): 5.2 nM
IC50 ([5]; SK-CO-1, Colon, KRAS G12V): 0.49 nM
IC50 ([5]; SK-LU-1, NSCLC, KRAS G12D): 26 nM
IC50 ([5]; SK-MEL-30, Skin, NRAS Q61K): 91.6 nM
IC50 ([5]; SNU-1, Stomach, KRAS G12D): 0.46 nM
IC50 ([5]; SW403, Colon, KRAS G12V): 4.1 nM
IC50 ([5]; SW480, Colon, KRAS G12V): 4.31 nM
IC50 ([5]; T.T, Esophageal, KRAS Amp): 5.68 nM
IC50 ([5]; TYK-nu, Ovary, NRAS G12D, Q61K): 1.14 nM
IC50 ([5]; UM-UC-3, Bladder, KRAS G12C): 2.11 nM
TGI (%) ([6]; 3 mg/kg once daily): 59%
TGI (%) ([6]; 5 mg/kg once daily): 92%
TGI (%) ([6]; 10 mg/kg once daily): 110%
TGI (%) ([7]; 3 mg/kg once daily): 16%
TGI (%) ([7]; 5 mg/kg once daily): 65%
TGI (%) ([7]; 10 mg/kg once daily): 149%
TGI (%) ([8]; 3 mg/kg once daily): 11%
TGI (%) ([8]; 5 mg/kg once daily): 38%
TGI (%) ([8]; 10 mg/kg once daily): 65%
